What is called IC50 is the concentration needed to halve the response being measured. One may read the Ki as a measure of affinity in units of concentration, obtained from inhibition or displacement.

“Also recorded” adds a separate entry of the source. Like-named read-outs stand apart in the source and are kept apart here.

The record followed here is patent US12729458B2, “Discovery and evolution of biologically active metabolites” (The Regents of the University of Colorado, a Body Corporate, priority 2020, dated 2026).

The target in one assay is T1, PTP1B (Homo sapiens, UniProt P18031).
T1 construct: In this study, we used a well-studied truncation variant (i.e., PTP1B1-321); His-tag; made in house; host or cells: E. coli BL21 (DE3), pET21b
T1 sequence (P18031 1-321): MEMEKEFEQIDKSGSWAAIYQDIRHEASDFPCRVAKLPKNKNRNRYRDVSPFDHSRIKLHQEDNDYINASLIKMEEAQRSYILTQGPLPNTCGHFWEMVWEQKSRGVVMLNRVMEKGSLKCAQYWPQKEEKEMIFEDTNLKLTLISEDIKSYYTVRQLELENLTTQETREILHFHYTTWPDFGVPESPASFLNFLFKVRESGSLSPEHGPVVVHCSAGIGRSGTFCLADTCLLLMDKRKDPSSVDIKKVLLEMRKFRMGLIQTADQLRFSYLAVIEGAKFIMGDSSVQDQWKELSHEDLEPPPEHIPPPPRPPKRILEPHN
The class given is cell-based, H. sapiens. The following applies: terpenoid produced in the cell by its metabolic pathway.

For a further assay, the target named is T2, PTP1B (PTP1B1-321) (Homo sapiens, UniProt P18031).
T2 construct: His-tag; made in house; host or cells: E. coli BL21 (DE3), pET21b
T2 sequence (P18031 1-321): T1 sequence (P18031 1-321)
Nature of the assay: PTP1B-catalyzed hydrolysis of pNPP in the presence of terpenoids (enzyme kinetics, IC50 from best-fit models). The class given is biochemical, H. sapiens. Conditions: for IC50: 15 mM pNPP, 10% DMSO; for Ki: PTP1B1-321. As to the method:
Enzyme kinetics. To examine terpenoid-mediated inhibition, PTP1B-catalyzed hydrolysis of p-nitrophenyl phosphate (pNPP) was measured in the presence of various concentrations of terpenoids. Each reaction included PTP1B ([…]), pNPP (0.33, 0.67, 2, 5, 10, and 15 mM), inhibitors (110 μM, 50 μM, and 15 μM for amorphadiene; 100 μM, 50 μM, and 16.7 μM for taxadiene), and buffer (50 mM HEPES pH=7.5, 0.5 mM TCEP, 50 μg/ml BSA, 10% DMSO). The formation of p-nitrophenol was monitored by measuring absorbance at 405 nm every 10 seconds for 5 minutes on a Spectramax M2 plate reader.
Kinetic models were evaluated in three steps: (i) Initial-rate measurements collected in the absence and presence of inhibitors were fitted to Michaelis-Menten and inhibition models, respectively (here, the nlinfit and fminsearch functions from MATLAB were used). (ii) An F-test was used to compare the mixed model to the single-parameter model with the least sum squared error (here, the fcdf function from MATLAB was used to assign p-values), and the mixed model was accepted when p<0.05.
The MATLAB function “nlparci” was used to determine the confidence intervals of kinetic parameters, and those intervals were propagated to estimate corresponding confidence on IC50's.
(§1) Enzyme kinetics. To examine terpenoid-mediated inhibition, we measured PTP-catalyzed hydrolysis of p-nitrophenyl phosphate (pNPP) or 4-methylumbelliferyl phosphate (4-MUP, used when KM for pNPP was large) in the presence of various concentrations of terpenoids. Each reaction included PTP (0.05 μM PTP1B/TCPTP or 0.1 μM SHP1/SHP2 in 50 mM HEPES, 0.5 mM TCEP, 50 μg/ml BSA), pNPP (0.33, 0.67, 2, 5, 10, and 15 mM) or 4-MUP (0.13, 0.27, 0.8, 2.27, 2.93, 4.53, 7.07, and 8 mM), inhibitor (with concentrations listed in the figures), buffer (50 mM HEPES pH=7.3, 50 μg/ml BSA), and DMSO at 10% v/v. We monitored the formation of p-nitrophenol by measuring absorbance at 405 nm every 10 seconds for 5 minutes on a SpectraMax M2 plate reader and the formation of 4-methylumbelliferyl by measuring fluorescence at 450 nm (370 nm ex, 435 nm cutoff, medium gain).
(§2) We used a custom MATLAB script to process all raw kinetic data. This script removed all concentration values that fell outside of either (i) the range of our standard curve (absorbance/fluorescence vs. μM; FIG. 39) or (ii) the initial rate regime (>10% of the pNPP or 4-MUP concentration used in the assay). When this step reduced kinetic dataset to fewer than ten points, we re-measured those datasets to collect at least ten. We fit final datasets, in turn, with a linear regression model (using Matlab's backslash operator).
We evaluated kinetic models in three steps: (i) We fit initial-rate measurements collected in the absence and presence of inhibitors to Michaelis-Menten and inhibition models, respectively (here, we used the nlinfit and fminsearch functions from MATLAB; TABLE 12). (ii) We used an F-test to compare the mixed model to the single-parameter model with the least sum squared error (here, we used the fedf function from MATLAB to assign p-values), and we accepted the mixed model when p<0.05.

Another assay has as its system TCPTP1-281. Briefly: pNPP hydrolysis by TC-PTP lacking the α7-equivalent region. It counts as biochemical, H. sapiens. Conditions: for change in PTP1B/TC-PTP selectivity on removal of the α7 helix (or equivalent) from both enzymes: PTP1B1-281 and TCPTP1-281 vs full constructs; for Ki: TCPTP1-281. The protocol:
as §1, §2
We evaluated kinetic models in three steps: (i) We fit initial-rate measurements collected in the absence and presence of inhibitors to Michaelis-Menten and inhibition models, respectively (here, we used the nlinfit and fminsearch functions from MATLAB; TABLE 12). (ii) We used an F-test to compare the mixed model to the single-parameter model with the least sum squared error (here, we used the fedf function from MATLAB to assign p-values), and we accepted the mixed model when p<0.05. (iii) We used the Akaike's Information Criterion (AIC) to compare the best-fit single parameter model to each alternative single parameter model, and we accepted the “best-fit” model when the difference in AIC (Δi) exceed 5 for all comparisons.^78 We note: For AD, AB, and (+) 1-(10),4-cadinadiene this criterion was not met; both noncompetitive and uncompetitive models, however, yielded indistinguishable ICso's.
We used the MATLAB function “nlparci” to determine the confidence intervals of kinetic parameters, and we propagated those intervals to estimate corresponding confidence intervals for each IC50.

The target in another assay is T3, SHP1 (Homo sapiens, UniProt P29350).
T3 construct: made in house; host or cells: E. coli BL21 (DE3)
T3 sequence (P29350 whole entry): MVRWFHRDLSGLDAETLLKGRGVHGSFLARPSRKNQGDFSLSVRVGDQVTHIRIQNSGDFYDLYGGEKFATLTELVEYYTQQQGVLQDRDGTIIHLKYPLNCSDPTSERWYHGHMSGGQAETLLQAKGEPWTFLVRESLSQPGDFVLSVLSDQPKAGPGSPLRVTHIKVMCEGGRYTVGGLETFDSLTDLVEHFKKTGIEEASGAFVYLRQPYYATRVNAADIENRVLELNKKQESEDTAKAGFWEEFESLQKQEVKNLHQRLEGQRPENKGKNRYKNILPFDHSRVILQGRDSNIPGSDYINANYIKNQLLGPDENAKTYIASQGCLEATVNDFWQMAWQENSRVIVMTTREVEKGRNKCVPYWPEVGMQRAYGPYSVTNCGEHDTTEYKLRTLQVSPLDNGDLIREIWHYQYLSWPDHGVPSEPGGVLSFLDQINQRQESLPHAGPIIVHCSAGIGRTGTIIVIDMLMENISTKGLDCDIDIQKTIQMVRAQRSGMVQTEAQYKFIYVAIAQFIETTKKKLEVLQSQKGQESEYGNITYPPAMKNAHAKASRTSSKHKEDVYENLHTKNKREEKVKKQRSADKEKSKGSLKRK
Nature of the assay: SHP1-catalyzed hydrolysis of 4-MUP in the presence of terpenoids. It counts as biochemical, H. sapiens. The protocol:
as §1
We used a custom MATLAB script to process all raw kinetic data. This script removed all concentration values that fell outside of either (i) the range of our standard curve (absorbance/fluorescence vs. μM; FIG. 39) or (ii) the initial rate regime (>10% of the pNPP or 4-MUP concentration used in the assay). When this step reduced kinetic dataset to fewer than ten points, we re-measured those datasets to collect at least ten. We fit final datasets, in turn, with a linear regression model (using Matlab's backslash operator). […]

Where [1] appears, read: Example 2, HEPES pH 7.3, ± 95% confidence interval.
[2] abbreviates: competitive model of inhibition, read-out: Fit par. Ki, competitive model.
Where [3] appears, read: mixed model, competitive constant, read-out: Fit par. Ki,c, mixed model.
The mark [4] stands for this setting: mixed model, uncompetitive constant, read-out: Fit par. Ki,u, mixed model.
Setting [5] is: noncompetitive model of inhibition, read-out: Fit par. Ki, noncompetitive model.
Setting [6] is: uncompetitive model of inhibition, read-out: Fit par. Ki, uncompetitive model.

As for `C=C(C)[C@@H]1CC[C@@H](C)[C@@H]2CCC(C)=C[C@@H]21` [amorphadiene], at PTP1B, the “survival of E. coli with PTP1B B2H system on spectinomycin” value is reported as “permitted survival at high concentrations of antibiotic”. The IC50 on PTP1B (PTP1B1-321) (Example 1, HEPES pH 7.5) is roughly 53 µM; on PTP1B (PTP1B1-321) (setting [1]), 53 ± 8 µM. In addition, the Ki on PTP1B (PTP1B1-321) (setting [2]) came out at 2.85 µM; on PTP1B (PTP1B1-321) (setting [3]), 86.2 µM; on PTP1B (PTP1B1-321) (setting [4]) it was 50.1 µM; on PTP1B (PTP1B1-321) (setting [5]), 52.6 µM; at PTP1B (PTP1B1-321) (setting [6]), 46.3 µM; at TCPTP1-281 (setting [2]) it was 87.2 µM. Further, the inhibitory constant (Ki) on TCPTP1-281 (setting [4]) worked out at 356 µM; on TCPTP1-281 (setting [5]) it was 400 µM; at TCPTP1-281 (setting [6]), 356 µM. Further, the “simultaneous binding with TCS401 (Dixon plot)” value at PTP1B (PTP1B1-321) (Vo^−1 vs. [TCS401] at various concentrations of AD) is “cannot bind simultaneously”. In addition, the “simultaneous binding with orthovanadate (Dixon plot)” value at PTP1B (PTP1B1-321) (Vo^−1 vs. [orthovanadate] at various concentrations of AD) is reported as “can bind simultaneously”. For the same compound, at PTP1B (PTP1B1-321) (pNPP initial rates), the “model (mode) of PTP1B inhibition from Michaelis-Menten fits” value is “noncompetitive or uncompetitive inhibition; also recorded: noncompetitive inhibition”. For the same compound, in the assay with TCPTP1-281 (listed as AD), the “change in PTP1B/TC-PTP selectivity on removal of the α7 helix (or equivalent) from both enzymes” value is reported as “four-fold; also recorded: reduces the selectivity”. Besides, the “inhibition of SHP1” value at SHP1 is reported as “too weak to measure”.

In the case of `CC(C)=CCC=C(C)C1CC=C(C)CC1` (stereo not drawn) [α-bisabolene], the “survival of E. coli with PTP1B B2H system on spectinomycin” value at PTP1B is on record as “permitted survival at high concentrations of antibiotic”. Besides, the IC50 at PTP1B (PTP1B1-321) (Example 1, HEPES pH 7.5) is roughly 20 µM; at PTP1B (PTP1B1-321) (setting [1]), 13 ± 2 µM. Also, the Ki on PTP1B (PTP1B1-321) (setting [2]) was found to be 1.05 µM; on PTP1B (PTP1B1-321) (setting [3]), 9.51 µM; on PTP1B (PTP1B1-321) (setting [4]), 13.7 µM; on PTP1B (PTP1B1-321) (setting [5]), 13.1 µM; on PTP1B (PTP1B1-321) (setting [6]), 11.7 µM; at TCPTP1-281 (setting [2]), 13.7 µM. For the same compound, the Ki at TCPTP1-281 (setting [3]) came out at 3610 µM; on TCPTP1-281 (setting [4]), 69.3 µM; on TCPTP1-281 (setting [5]), 76.2 µM; on TCPTP1-281 (setting [6]), 69.2 µM. Besides, the “change in PTP1B/TC-PTP selectivity on removal of the α7 helix (or equivalent) from both enzymes” value in the assay on TCPTP1-281 (listed as AB) was “insensitive and not”. Moreover, the “inhibition of SHP1” value on SHP1 is given as “low potency”.
